This is an account of results in ChEMBL document CHEMBL5465560, “Selectivity Literature for EUbOPEN Chemogenomic Library” (2024).

Assay [1] has as its target RAC-beta serine/threonine-protein kinase (Homo sapiens) (UniProt P31751). Description: Selectivity interaction (Kinase panel (Z-LYTE Assay)) EUB0001632a AKT2. Particulars: at 10 µM.
The target in assay [2] is Ribosomal protein S6 kinase alpha-4 (Homo sapiens) (UniProt O75676). The experiment in a line: Selectivity interaction (Kinase panel (KiNativ target engagement assay in Jurkat cells)) EUB0001635a RPS6KA4. Type of assay: cell-based. Particulars: Selectivity number of off-targets 0.0, Selectivity number of targets 233.0, Source Knowledge https://www.sciencedirect.com/science/article/pii/S2451945619300674?via%3Dihub, at 1 µM.

Assay [3] has as its target Activin receptor type-1-like (Homo sapiens) (UniProt P37023). Description: Selectivity interaction (KinomeScan (DiscoverX)) EUB0000607a ACVRL1. Particulars: at 10 µM.
Assay [4] addresses Rho-associated protein kinase 2 (Homo sapiens, UniProt O75116). The experiment in a line: Selectivity interaction (KinomeScan (DiscoverX)) EUB0000607a ROCK2. Particulars: at 10 µM.
For assay [5], the target named is T1, Serine/threonine-protein kinase 17B (Homo sapiens) (UniProt O94768).
T1 sequence (whole entry): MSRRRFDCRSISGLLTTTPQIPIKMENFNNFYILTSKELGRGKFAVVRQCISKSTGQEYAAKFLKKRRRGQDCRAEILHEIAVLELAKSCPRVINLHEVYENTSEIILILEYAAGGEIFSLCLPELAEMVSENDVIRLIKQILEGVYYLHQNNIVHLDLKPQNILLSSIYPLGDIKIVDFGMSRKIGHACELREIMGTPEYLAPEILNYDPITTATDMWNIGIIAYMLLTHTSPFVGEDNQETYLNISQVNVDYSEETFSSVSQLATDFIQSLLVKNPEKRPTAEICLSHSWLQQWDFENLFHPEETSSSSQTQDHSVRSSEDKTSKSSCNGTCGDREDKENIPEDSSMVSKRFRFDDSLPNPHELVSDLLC
Particulars: at 10 µM.

In assay [6] the target is DNA (cytosine-5)-methyltransferase 3B (Homo sapiens) (UniProt Q9UBC3). The experiment in a line: Selectivity interaction (Methyltransferase screen (Scintillation proximity assays)) EUB0000255b DNMT3B. (Scintillation proximity formats need no separation of bound from free tracer.)
Assay [7] addresses CDK7/Cyclin H/MNAT1 (Homo sapiens) (UniProt P51946+P50613+P51948). The experiment in a line: Selectivity interaction (Kinase panel (Invitrogen)) EUB0000639a CDK7. Particulars: at 200 nM. It is filed as protein-complex assay.
Assay [8] deals with Hepatocyte growth factor receptor (Homo sapiens), P08581 [M1250T]. Description: (§1) Selectivity interaction (KinomeScan (DiscoverX)) EUB0001049a MET. The note with it: at 1 µM.
In assay [9] the test system is Hepatocyte growth factor receptor (Homo sapiens), P08581 [Y1235D]. Described as §1. The note with it: at 1 µM.
Assay [10] has as its target T2, Myosin-IIIb (Homo sapiens) (UniProt Q8WXR4).
T2 sequence (whole entry): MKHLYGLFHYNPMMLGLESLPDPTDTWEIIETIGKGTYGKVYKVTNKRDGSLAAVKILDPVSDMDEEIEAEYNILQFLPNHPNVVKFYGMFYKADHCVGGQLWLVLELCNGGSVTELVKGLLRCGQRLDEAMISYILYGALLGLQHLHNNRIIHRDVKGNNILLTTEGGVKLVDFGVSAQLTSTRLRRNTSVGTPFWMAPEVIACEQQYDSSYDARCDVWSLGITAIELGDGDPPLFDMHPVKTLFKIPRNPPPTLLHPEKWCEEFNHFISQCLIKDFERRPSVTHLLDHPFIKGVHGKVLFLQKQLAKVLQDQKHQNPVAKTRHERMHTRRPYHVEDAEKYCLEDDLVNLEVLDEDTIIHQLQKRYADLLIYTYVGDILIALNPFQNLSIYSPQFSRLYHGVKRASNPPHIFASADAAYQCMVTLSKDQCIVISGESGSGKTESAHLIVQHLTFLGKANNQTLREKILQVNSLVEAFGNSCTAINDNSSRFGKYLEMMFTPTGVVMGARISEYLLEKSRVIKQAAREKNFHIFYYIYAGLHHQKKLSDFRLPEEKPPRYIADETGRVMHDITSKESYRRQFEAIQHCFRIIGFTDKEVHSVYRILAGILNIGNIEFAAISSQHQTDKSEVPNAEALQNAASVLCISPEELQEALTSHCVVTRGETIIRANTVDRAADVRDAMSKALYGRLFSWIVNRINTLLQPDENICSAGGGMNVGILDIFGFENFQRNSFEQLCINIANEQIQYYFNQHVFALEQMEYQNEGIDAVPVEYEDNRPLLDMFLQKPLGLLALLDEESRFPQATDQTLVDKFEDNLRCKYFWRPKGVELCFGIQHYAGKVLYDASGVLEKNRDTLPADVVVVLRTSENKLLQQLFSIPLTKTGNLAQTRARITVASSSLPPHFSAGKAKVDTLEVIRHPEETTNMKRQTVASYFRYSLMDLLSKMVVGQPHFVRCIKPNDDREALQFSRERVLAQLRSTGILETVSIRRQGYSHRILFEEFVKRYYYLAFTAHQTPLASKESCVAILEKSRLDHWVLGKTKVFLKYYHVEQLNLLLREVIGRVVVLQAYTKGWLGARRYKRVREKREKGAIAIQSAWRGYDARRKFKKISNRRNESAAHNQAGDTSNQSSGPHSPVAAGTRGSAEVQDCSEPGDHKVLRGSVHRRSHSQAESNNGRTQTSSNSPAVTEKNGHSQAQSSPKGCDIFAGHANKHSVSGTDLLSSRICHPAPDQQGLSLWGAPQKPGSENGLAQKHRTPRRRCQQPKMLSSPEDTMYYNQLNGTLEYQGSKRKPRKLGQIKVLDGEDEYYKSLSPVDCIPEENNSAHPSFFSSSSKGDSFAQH
Description: Selectivity interaction (KinomeScan (DiscoverX)) EUB0000695a MYO3B. The note with it: at 100 nM.

For assay [11], the target named is Transient receptor potential cation channel subfamily M member 6 (Homo sapiens) (UniProt Q9BX84). Description: Selectivity interaction (KinomeScan (DiscoverX)) EUB0000092b TRPM6. The note with it: at 10 µM.
The target of assay [12] is Atypical kinase COQ8A, mitochondrial (Homo sapiens, UniProt Q8NI60). The experiment in a line: Selectivity interaction (KinomeScan (DiscoverX)) EUB0000618a ADCK3. Particulars: at 10 µM.
In assay [13] the target is Protein-tyrosine kinase 2-beta (Homo sapiens) (UniProt Q14289). Description: Selectivity interaction (Upstate Kinase Profiler service (Millipore)) EUB0000056c PTK2B. The note with it: at 1 µM.
Chain of Protein-tyrosine kinase 2-beta (Homo sapiens) (Q14289 whole entry, looked up): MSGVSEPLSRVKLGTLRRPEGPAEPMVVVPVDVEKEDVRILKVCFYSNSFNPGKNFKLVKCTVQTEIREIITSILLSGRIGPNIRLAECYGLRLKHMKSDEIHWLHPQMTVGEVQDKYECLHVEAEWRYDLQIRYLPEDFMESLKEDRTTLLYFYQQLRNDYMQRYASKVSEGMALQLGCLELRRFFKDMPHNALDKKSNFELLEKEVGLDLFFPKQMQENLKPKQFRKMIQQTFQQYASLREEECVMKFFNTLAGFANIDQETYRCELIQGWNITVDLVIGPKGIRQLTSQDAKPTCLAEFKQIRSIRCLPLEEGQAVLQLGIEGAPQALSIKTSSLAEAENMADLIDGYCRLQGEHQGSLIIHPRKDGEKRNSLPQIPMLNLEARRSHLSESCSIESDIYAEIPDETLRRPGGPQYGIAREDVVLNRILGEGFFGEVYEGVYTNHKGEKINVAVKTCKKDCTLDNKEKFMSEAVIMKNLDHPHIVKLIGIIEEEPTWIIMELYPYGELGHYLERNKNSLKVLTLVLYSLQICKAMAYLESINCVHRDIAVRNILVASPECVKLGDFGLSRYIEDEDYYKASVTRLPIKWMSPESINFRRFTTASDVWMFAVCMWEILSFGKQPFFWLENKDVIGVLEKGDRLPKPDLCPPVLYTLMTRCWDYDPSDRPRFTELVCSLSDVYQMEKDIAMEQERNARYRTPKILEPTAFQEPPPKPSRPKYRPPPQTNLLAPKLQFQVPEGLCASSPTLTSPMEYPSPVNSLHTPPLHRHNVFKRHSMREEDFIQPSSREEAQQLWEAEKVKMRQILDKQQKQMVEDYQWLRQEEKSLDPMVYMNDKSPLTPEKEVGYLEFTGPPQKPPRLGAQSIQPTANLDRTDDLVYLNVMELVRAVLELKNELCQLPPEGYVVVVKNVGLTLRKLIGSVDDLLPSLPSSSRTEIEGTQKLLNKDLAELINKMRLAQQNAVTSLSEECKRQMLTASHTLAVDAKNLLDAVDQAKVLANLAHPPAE

Chain of RAC-beta serine/threonine-protein kinase (Homo sapiens) (P31751 whole entry): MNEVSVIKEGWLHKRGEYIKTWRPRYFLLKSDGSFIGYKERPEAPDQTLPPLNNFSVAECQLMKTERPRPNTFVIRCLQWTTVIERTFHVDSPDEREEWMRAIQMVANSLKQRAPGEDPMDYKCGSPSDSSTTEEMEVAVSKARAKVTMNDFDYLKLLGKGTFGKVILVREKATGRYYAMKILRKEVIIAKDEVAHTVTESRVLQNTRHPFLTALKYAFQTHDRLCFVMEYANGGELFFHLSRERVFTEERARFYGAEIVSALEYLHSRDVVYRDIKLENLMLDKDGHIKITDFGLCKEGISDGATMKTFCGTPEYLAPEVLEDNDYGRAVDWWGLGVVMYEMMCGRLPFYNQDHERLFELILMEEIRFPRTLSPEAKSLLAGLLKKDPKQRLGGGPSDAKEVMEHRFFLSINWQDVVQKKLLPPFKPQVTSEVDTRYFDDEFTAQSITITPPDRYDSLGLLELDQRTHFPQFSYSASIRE
Chain of Ribosomal protein S6 kinase alpha-4 (Homo sapiens) (O75676 whole entry, looked up): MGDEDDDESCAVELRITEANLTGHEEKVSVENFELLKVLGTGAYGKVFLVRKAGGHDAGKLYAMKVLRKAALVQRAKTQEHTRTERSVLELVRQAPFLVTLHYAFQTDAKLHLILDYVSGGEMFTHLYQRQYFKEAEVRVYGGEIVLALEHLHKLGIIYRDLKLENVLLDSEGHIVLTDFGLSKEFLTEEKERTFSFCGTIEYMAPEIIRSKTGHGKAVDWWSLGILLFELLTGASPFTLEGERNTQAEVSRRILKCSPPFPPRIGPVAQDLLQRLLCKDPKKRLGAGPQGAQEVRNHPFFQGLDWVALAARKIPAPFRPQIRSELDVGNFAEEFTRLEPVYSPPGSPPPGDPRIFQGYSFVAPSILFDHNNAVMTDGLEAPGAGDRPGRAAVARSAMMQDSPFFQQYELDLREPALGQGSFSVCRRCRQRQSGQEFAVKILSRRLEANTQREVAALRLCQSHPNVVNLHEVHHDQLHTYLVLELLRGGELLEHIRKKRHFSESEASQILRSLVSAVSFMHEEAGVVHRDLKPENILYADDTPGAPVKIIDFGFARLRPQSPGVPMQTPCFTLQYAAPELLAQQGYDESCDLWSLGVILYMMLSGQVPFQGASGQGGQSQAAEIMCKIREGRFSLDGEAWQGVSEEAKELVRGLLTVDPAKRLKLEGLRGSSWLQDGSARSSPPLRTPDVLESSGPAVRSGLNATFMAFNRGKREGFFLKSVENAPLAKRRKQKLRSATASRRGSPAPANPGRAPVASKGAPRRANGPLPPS
Chain of Transient receptor potential cation channel subfamily M member 6 (Homo sapiens) (Q9BX84 whole entry): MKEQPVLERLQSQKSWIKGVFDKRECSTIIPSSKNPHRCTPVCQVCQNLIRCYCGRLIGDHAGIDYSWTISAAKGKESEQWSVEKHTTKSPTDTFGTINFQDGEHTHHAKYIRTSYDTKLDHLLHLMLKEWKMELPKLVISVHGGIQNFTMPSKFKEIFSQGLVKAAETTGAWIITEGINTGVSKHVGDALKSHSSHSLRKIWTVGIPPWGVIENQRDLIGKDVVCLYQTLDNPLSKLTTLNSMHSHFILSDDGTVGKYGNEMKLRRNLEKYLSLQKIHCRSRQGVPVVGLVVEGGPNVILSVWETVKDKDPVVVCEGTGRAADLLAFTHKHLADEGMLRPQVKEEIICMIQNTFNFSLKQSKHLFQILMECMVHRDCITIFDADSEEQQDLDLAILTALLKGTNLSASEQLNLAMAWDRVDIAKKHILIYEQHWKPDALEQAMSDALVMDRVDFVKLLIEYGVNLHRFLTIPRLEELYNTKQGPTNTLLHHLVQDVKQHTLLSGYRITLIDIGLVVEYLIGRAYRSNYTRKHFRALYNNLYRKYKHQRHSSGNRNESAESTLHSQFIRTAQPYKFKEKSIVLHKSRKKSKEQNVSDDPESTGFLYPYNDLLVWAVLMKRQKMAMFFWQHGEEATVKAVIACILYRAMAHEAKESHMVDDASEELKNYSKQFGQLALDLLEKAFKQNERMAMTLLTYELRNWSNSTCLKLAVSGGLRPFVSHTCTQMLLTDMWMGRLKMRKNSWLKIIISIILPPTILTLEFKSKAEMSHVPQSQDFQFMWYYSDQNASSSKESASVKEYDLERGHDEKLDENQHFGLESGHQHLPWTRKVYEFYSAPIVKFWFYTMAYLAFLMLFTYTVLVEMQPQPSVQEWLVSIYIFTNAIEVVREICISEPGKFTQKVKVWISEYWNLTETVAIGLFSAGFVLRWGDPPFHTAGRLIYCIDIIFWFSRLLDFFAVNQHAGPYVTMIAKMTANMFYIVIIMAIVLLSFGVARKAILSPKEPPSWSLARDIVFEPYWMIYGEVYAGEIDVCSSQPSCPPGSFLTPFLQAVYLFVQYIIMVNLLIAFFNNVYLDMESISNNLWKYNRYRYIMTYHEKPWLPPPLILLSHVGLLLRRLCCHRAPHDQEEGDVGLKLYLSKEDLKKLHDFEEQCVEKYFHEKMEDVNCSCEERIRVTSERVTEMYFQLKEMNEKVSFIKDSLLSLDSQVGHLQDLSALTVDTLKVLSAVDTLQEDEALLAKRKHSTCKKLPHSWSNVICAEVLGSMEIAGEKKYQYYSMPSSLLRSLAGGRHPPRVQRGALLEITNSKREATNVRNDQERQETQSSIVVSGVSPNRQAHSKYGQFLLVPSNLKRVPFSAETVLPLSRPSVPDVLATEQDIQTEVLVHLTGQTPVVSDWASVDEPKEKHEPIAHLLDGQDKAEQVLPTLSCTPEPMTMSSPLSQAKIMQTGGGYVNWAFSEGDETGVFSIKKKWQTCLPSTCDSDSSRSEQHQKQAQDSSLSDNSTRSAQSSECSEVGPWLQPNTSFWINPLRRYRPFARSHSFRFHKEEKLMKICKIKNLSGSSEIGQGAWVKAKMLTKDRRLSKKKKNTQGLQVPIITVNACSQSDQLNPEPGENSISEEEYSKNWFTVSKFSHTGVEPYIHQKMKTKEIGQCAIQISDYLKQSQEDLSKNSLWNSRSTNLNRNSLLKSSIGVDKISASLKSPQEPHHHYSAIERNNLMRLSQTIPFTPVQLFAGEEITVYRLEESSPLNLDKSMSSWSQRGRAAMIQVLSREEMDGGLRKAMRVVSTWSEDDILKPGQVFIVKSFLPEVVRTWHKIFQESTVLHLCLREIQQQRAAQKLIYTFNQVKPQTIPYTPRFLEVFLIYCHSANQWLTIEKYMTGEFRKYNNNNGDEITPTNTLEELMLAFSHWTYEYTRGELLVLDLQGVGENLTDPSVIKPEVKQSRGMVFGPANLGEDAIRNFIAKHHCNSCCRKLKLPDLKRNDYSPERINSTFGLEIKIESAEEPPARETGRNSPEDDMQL
Chain of Activin receptor type-1-like (Homo sapiens) (P37023 whole entry): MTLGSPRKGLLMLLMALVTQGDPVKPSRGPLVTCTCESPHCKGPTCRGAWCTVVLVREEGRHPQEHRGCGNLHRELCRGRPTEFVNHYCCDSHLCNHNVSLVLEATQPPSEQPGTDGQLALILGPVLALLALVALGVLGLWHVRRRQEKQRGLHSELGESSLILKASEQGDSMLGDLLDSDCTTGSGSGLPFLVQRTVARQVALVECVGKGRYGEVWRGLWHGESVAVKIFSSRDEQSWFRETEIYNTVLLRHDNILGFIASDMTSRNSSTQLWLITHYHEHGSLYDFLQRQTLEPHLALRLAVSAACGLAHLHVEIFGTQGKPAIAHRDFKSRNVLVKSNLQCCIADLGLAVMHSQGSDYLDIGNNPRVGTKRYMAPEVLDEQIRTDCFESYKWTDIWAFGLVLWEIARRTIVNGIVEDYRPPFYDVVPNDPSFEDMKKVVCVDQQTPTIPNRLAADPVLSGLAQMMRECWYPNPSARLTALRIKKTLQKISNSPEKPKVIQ

As to `Cn1cc(-n2cnc3c(NCc4nc5cc(Cl)c(Cl)cc5[nH]4)nc(N4CCOCC4)nc32)cn1`, the % of control in assay [1] was -2.38%. For the molecule `C=CC(=O)Nc1ccc(C(=O)Nc2[nH]nc3c2CN(C(=O)N[C@H](CN(C)C)c2ccccc2)C3(C)C)cc1`, the % of engagement in assay [2] was -6.3%. On to `CNC(=O)Nc1ccc(-c2nc(N3CC4CCC(C3)O4)c3cnn(C4CCC5(CC4)OCCO5)c3n2)cc1`, for which the % of control in assay [3] and in assay [4] was 100% each time. For the molecule `Cc1cc([C@@H](C)Nc2ccccc2C(=O)O)c2nc(N3CCOCC3)cc(=O)n2c1` [AZD-6482], in [5], the % of control came out at 100%. `COCCN1CCC(c2cc(CN(C)C(=O)c3cccc(Oc4ccccc4)c3)ccn2)CC1`: the % activity in [6] (at 1 µM) was more than 95%; in [6] (at 10 µM) it was more than 85%.

For the molecule `CC[C@@H]1[C@H](F)C(=O)N[C@@H]1COc1nccc2cc(C(N)=O)c(OC)cc12` [ZIMLOVISERTIB], the % of inhibition in assay [7] turned out to be 2.84%. As for `COc1cc(Nc2nc(C)cc(-c3cnn4nc(OC)ccc34)n2)cc(C(F)(F)F)c1`, the % of control was 100% in assay [8] and 82% in assay [9]. In the case of `Cc1cc(F)c(C(=O)Nc2cccc(-c3nncn3C(C)C)n2)cc1-n1cnc(C2CC2)c1`, in [10], the % of control was determined as 80%. With `CCC(=O)N1CCN(c2ccc(-n3c(=O)ccc4cnc5ccc(-c6cnc7ccccc7c6)cc5c43)cc2C(F)(F)F)CC1`, the % of control in [11] came out at 100%. `O[C@H]1CC[C@H](Nc2ncc3nc(Nc4c(F)cc(F)cc4F)n([C@H]4CCOC4)c3n2)CC1`: the % of control in assay [12] stood at 35%. In assay [13], `Cc1ccc(-c2ccc3c(ccc4sc5c(c43)NC[C@@H](C)NC5=O)n2)cn1` had a % of inhibition of 12%.
